Measurements taken from ChEMBL document CHEMBL6134842, “Acetal functionalized iminosugars for targeting β-glucocerebrosidase modulation” (Eur J Med Chem, 2025).
Where a chain is given by its changes, count along the chain named. Values belong to the molecule of their own block, whether it stands above or below them. Calls of active or inactive are those of the source. No cut-off for these calls is given here.

What was measured:
[1] = tested on: T1, Lysosomal acid glucosylceramidase (Homo sapiens), P04062 [L483P]; test: Modulation of GCase L444P/L444P mutant in Gaucher patient-derived human fibroblasts assessed as GCase rescue at 10 to 100 uM incubated for 4 days by fluorescence based lysed cell assay; details: Fibroblast, dose 10-100 µM, time 4.0 day
T1 sequence (whole entry): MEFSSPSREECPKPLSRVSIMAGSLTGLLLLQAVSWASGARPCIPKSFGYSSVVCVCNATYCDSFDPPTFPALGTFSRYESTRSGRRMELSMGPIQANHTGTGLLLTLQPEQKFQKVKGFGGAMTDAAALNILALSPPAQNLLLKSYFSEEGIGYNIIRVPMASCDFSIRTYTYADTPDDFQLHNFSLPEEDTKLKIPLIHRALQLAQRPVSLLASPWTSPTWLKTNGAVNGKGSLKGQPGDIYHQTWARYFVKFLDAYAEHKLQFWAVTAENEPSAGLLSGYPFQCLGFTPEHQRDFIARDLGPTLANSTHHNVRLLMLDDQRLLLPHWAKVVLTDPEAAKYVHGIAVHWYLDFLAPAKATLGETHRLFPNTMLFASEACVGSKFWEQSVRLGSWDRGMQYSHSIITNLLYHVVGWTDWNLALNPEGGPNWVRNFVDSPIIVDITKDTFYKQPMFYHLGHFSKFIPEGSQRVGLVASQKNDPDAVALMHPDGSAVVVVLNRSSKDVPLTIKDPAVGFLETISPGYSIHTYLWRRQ

[2] = tested on: Lysosomal acid glucosylceramidase (Homo sapiens), P04062 [UNDEFINED MUTATION]; test: Modulation of GCase N370S/RecNcil mutant in Gaucher patient-derived human fibroblasts assessed as fold increase in GCase rescue at 20 uM incubated for 4 days by fluorescence based lysed cell assay relative to control; details: Fibroblast, filed as modulator, time 4.0 day
[3] = tested on: T1, Lysosomal acid glucosylceramidase (Homo sapiens), P04062 [L483P]; test: (§1) Modulation of GCase L444P/L444P mutant in Gaucher patient-derived human fibroblasts using 4-methylumbelliferyl beta-D-glucopyranoside as substrate assessed as fold increase in GCase rescue at 30 uM preincubated for 4 days followed by compound washout and substrate addition measured after 2 hrs by fluorescence based intact cell enzyme assay relative to control; details: Fibroblast, filed as modulator, time 4.0 day
[4] = molecular target: T2, Lysosomal acid glucosylceramidase (Homo sapiens) (UniProt P04062); test: Inhibition of lysosomal GCase in human leucocytes using 4-methylumbelliferyl-beta-D-glucopyranoside as substrate at 1 mM incubated for 1 hr by fluorescence based assay relative to control; type: cell-based; details: Leucocyte
T2 sequence (whole entry): T1 sequence (whole entry) with P483L

[5] = molecular target: T2, Lysosomal acid glucosylceramidase (Homo sapiens); test: Inhibition of lysosomal GCase in human leucocytes using 4-methylumbelliferyl-beta-D-glucopyranoside as substrate at 1 mM measured 24 hrs by fluorescence based assay relative to control; type: cell-based; details: Leucocyte
[6] = molecular target: T2, Lysosomal acid glucosylceramidase (Homo sapiens); test: Inhibition of lysosomal GCase in human leucocytes using 4-methylumbelliferyl-beta-D-glucopyranoside as substrate at 1 mM measured after 12 hrs by fluorescence based assay relative to control; type: cell-based; details: Leucocyte
[7] = tested on: Lysosomal acid glucosylceramidase (Homo sapiens), P04062 [UNDEFINED MUTATION]; test: Modulation of GCase N370S/RecNcil mutant in Gaucher patient-derived human fibroblasts assessed as fold increase in GCase rescue at 100 uM incubated for 4 days by fluorescence based lysed cell assay relative to control; details: Fibroblast, filed as modulator, time 4.0 day
[8] = tested on: Lysosomal acid glucosylceramidase (Homo sapiens), P04062 [UNDEFINED MUTATION]; test: as §1, with “N370S/RecNcil” for “L444P/L444P”; details: Fibroblast, filed as modulator, time 4.0 day
[9] = Stability of compound at pH 7 assessed as compound remaining measured after 4 days by 1H NMR spectroscopy; type: physicochemical; details: buffer, time 4 day, read-out: Stability
[10] = molecular target: T2, Lysosomal acid glucosylceramidase (Homo sapiens); test: Non-competitive inhibition of lysosomal GCase in human leucocytes using 4-methylumbelliferyl-beta-D-glucopyranoside as substrate assessed as reduction in apparent Vmax incubated for 1 hr by fluorescence based assay; type: cell-based; details: Leucocyte
[11] = molecular target: T3, Lysosomal acid glucosylceramidase (Homo sapiens, UniProt P04062); test: Non-competitive inhibition of lysosomal GCase in human leucocytes using 4-methylumbelliferyl-beta-D-glucopyranoside as substrate incubated for 1 hr by fluorescence based assay; type: cell-based, Leucocyte
T3 sequence (P04062 whole entry): T1 sequence (whole entry) with P483L

[12] = Stability of compound at pH 5.8 assessed as compound hydrolysis measured after 6 days by 1H NMR spectroscopy; type: physicochemical; details: buffer, pH 5.8, 144 h; time 6 day
[13] = molecular target: T2, Lysosomal acid glucosylceramidase (Homo sapiens); test: Inhibition of lysosomal GCase in human leucocytes using 4-methylumbelliferyl-beta-D-glucopyranoside as substrate at 1 mM measured immediately by fluorescence based assay relative to control; type: cell-based; details: Leucocyte
[14] = molecular target: T2, Lysosomal acid glucosylceramidase (Homo sapiens); test: Inhibition of lysosomal GCase in human leucocytes using 4-methylumbelliferyl-beta-D-glucopyranoside as substrate incubated for 1 hr by Lineweaver-burk plot analysis; type: cell-based; details: Leucocyte
[15] = molecular target: T2, Lysosomal acid glucosylceramidase (Homo sapiens); test: Non-competitive inhibition of lysosomal GCase in human leucocytes using 4-methylumbelliferyl-beta-D-glucopyranoside as substrate assessed as unchanged Km incubated for 1 hr by fluorescence based assay; type: cell-based; details: Leucocyte
[16] = Stability of compound at pH 5.8 assessed as compound remaining measured after 1 hr by 1H NMR spectroscopy; type: physicochemical; details: buffer, read-out: Stability
[17] = tested on: T1, Lysosomal acid glucosylceramidase (Homo sapiens), P04062 [L483P]; test: Modulation of GCase L444P/L444P mutant in Gaucher patient-derived human fibroblasts assessed as fold increase in GCase rescue at 100 uM incubated for 4 days by fluorescence based lysed cell assay relative to control; details: Fibroblast, filed as modulator, time 4.0 day
[18] = molecular target: T2, Lysosomal acid glucosylceramidase (Homo sapiens); test: Inhibition of lysosomal GCase in human leucocytes using 4-methylumbelliferyl-beta-D-glucopyranoside as substrate at 1 mM measured 36 hrs by fluorescence based assay relative to control; type: cell-based; details: Leucocyte
[19] = tested on: Lysosomal acid glucosylceramidase (Homo sapiens), P04062 [UNDEFINED MUTATION]; test: as §1, with “N370S/RecNcil” for “L444P/L444P”, “as” for “as fold increase in”, “10 to 100” for “30”, “assay” for “assay relative to control”; details: Fibroblast, dose 10-100 µM, time 4.0 day
[20] = Antioxidant activity assessed as DPPH radical scavenging activity at 200 umol measured after 10 mins relative to control; type: functional; details: dose 200.0 µmol
[21] = tested on: T1, Lysosomal acid glucosylceramidase (Homo sapiens), P04062 [L483P]; test: Modulation of GCase L444P/L444P mutant in Gaucher patient-derived human fibroblasts assessed as fold increase in GCase rescue at 50 uM incubated for 4 days by fluorescence based lysed cell assay relative to control; details: Fibroblast, filed as modulator, time 4.0 day
[22] = tested on: Lysosomal acid glucosylceramidase (Homo sapiens), P04062 [UNDEFINED MUTATION]; test: Modulation of GCase N370S/RecNcil mutant in Gaucher patient-derived human fibroblasts assessed as fold increase in GCase rescue at 10 uM incubated for 4 days by fluorescence based lysed cell assay relative to control; details: Fibroblast, filed as modulator, time 4.0 day
[23] = Antioxidant activity assessed as DPPH radical scavenging activity at 400 umol measured after 10 mins relative to control; type: functional; details: dose 400.0 µmol
[24] = tested on: Lysosomal acid glucosylceramidase (Homo sapiens), P04062 [UNDEFINED MUTATION]; test: Modulation of GCase N370S/RecNcil mutant in Gaucher patient-derived human fibroblasts assessed as GCase rescue at 10 to 100 uM incubated for 4 days by fluorescence based lysed cell assay; details: Fibroblast, dose 10-100 µM, time 4.0 day
[25] = Antioxidant activity assessed as inhibition of DPPH radical scavenging activity measured after 10 mins relative to control; type: functional
[26] = tested on: T1, Lysosomal acid glucosylceramidase (Homo sapiens), P04062 [L483P]; test: Modulation of GCase L444P/L444P mutant in Gaucher patient-derived human fibroblasts assessed as GCase rescue at 10 uM incubated for 4 days by fluorescence based lysed cell assay; details: Fibroblast, filed as modulator, time 4.0 day
[27] = tested on: Lysosomal acid glucosylceramidase (Homo sapiens), P04062 [UNDEFINED MUTATION]; test: Modulation of GCase N370S/RecNcil mutant in Gaucher patient-derived human fibroblasts assessed as fold increase in GCase rescue at 50 uM incubated for 4 days by fluorescence based lysed cell assay relative to control; details: Fibroblast, filed as modulator, time 4.0 day

Lysosomal acid glucosylceramidase (Homo sapiens), P04062 [UNDEFINED MUTATION], sequence (P04062 whole entry, looked up, stated change not applied): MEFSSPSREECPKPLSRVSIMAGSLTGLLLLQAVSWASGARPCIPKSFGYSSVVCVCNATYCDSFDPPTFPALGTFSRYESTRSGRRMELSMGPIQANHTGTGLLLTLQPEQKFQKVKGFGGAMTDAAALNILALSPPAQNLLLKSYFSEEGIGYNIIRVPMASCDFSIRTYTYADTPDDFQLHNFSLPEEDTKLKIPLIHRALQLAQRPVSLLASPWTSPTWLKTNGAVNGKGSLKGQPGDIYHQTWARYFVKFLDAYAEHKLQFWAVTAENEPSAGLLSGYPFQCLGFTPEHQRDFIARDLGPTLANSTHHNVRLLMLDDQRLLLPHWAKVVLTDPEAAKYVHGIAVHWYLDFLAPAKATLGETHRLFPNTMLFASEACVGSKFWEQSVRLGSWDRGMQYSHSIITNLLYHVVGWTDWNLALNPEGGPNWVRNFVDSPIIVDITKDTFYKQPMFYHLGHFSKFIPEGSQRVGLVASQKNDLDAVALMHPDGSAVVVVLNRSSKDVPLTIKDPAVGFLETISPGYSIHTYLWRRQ

SMILES: OC[C@H]1CNC[C@@H](O)[C@@H]1O
- fold change (FC) [22]: 2

SMILES: Cc1cc(C(C)(C)C)c(O)c(C(C)(C)C)c1
- inhibition [25]: > 95%

SMILES: O=[N+]([O-])c1ccc(C2OC[C@H](CCN3C[C@@H](O)C(O)[C@H](O)C3)O2)cc1 (some centres not stated)
- Activity [1]: inactive
- inhibition [4]: 77%
- fold change (FC) [7]: 1.6
- remaining at 96 h [9]: > 95%
- IC50 [11]: 300 µM
- Stability [12]: Stable
- remaining at 1 h [16]: > 95%

SMILES: Nc1c(Br)cc(Br)cc1CN[C@H]1CC[C@H](O)CC1
- fold change (FC) [21]: 1.3

Continued, in another order:

- Activity [1]: inactive
- fold change (FC) [2]: 1.5
SMILES: CCCCOC1OCC(CNC(=S)N2C[C@H](O)[C@@H](O)[C@H](O)[C@H]2CO)O1 (some centres not stated)

- fold change (FC) [3]: 1.26
- inhibition [4]: 75%
- inhibition [5]: 80%
- inhibition [6]: 77%
- fold change (FC) [7]: 1.83
- fold change (FC) [8]: 1.46
- remaining at 96 h [9]: > 95%
- inhibition [10]: Active
- IC50 [11]: 100 µM
- Stability [12]: Stable
- inhibition [13]: 80%
- inhibition [15]: Active
- remaining at 1 h [16]: > 95%
- fold change (FC) [17]: 1.56
- inhibition [18]: 76%
SMILES: OC1[C@H](O)CN(CC[C@H]2COC(c3ccc(Br)cc3)O2)C[C@H]1O (some centres not stated)
- inhibition [14]: Active; The Secondary Plot Was Concave Upward, Rather Than Linear, Thus Confirming That Inhibitory Effect Arises From The Binding Of More Than One Molecule Of Compound On Enzyme Surface; Not Attributable To A Cooperativity Phenomenon

- Activity [19]: inactive
- inhibition [4]: 84%
- inhibition [5]: 55%
- inhibition [6]: 69%
- fold change (FC) [7]: 1.5
- remaining at 96 h [9]: 72%
- inhibition [13]: 75%
- remaining at 1 h [16]: 87%
- fold change (FC) [21]: 1.3
- inhibition [18]: 47%
SMILES: COc1cc(/C=C/C2OC[C@H](CCN3C[C@@H](O)C(O)[C@H](O)C3)O2)ccc1O (some centres not stated)
- Activity [20]: 67%

- Activity [1]: inactive
- inhibition [4]: 70%
- remaining at 96 h [9]: 61%
- remaining at 1 h [16]: 82%
- Activity [24]: inactive
SMILES: COc1cc(C2OC[C@H](CCN3C[C@@H](O)C(O)[C@H](O)C3)O2)ccc1O (some centres not stated)
- Activity [23]: 14%

- fold change (FC) [7]: 1.61
- fold change (FC) [26]: 2.03
- fold change (FC) [21]: 2.11
SMILES: OC1[C@H](O)CN(CC[C@H]2COC(OCc3ccc(-c4ccccc4)cc3)O2)C[C@H]1O (some centres not stated)

- fold change (FC) [26]: 1.24
- fold change (FC) [27]: 1.92
- fold change (FC) [21]: 2.15
- fold change (FC) [22]: 2.06
SMILES: CCCCCCCCCCCCOC1OC[C@H](CCN2C[C@@H](O)C(O)[C@H](O)C2)O1 (some centres not stated)
